In US20090082354A1, “PYRAZOLO[5, 1-C] [1,2,4] TRIAZINES, METHODS FOR PREPARATION AND USE THEREOF” (Wyeth, priority 2007, published 2009):

target: T1, Flag/GST-tagged recombinant human B-Raf (Homo sapiens, UniProt P15056); experiment: B-Raf kinase assay (phosphorylation of GST-MEK1, DELFIA readout); assay type: biochemical; conditions: B-Raf 0.2 nM, non-active GST-MEK1 2.8 nM, 45 minutes at RT; compound 1 μM to 3 nM or 0.1 uM to 300 pm in half log dilutions
T1 construct: Flag; GST; made in house; host or cells: Sf9 insect cells (B-Raf); E. coli (MEK1-GST)
Procedure: Testing For B-Raf Kinase Inhibitors
Compounds of Formula A were tested as B-Raf Kinase inhibitors that can inhibit growth of tumor cells which contain oncogenic forms of Receptor Tyrosine Kinases or K-Ras, or B-Raf kinase.
Reagents: Flag/GST-tagged recombinant human B-Raf produced in Sf9 insect cells, human non-active Mek-1-GST (recombinant protein produced in E. coli); and a phospho-MEK1 specific poly-clonal Ab from Cell Signaling Technology (Cat. #9121).
B-Raf1 Kinase Assay Procedure: B-Raf-1 is used to phosphorylate GST-MEK1. MEK1 phosphorylation is measured by a phospho-specific antibody (from Cell Signaling Technology, Cat. #9121) that detects phosphorylation of two serine residues at positions 217 and 221 on MEK1.
The following Kinase Assay Protocol was employed in accordance with the invention:
B-Raf Assay Stock Solutions:
1. Assay Dilution Buffer (ADB): 20 mM MOPS, pH 7.2, 25 mM B-glycerol phosphate, 5 mM EGTA, 1 mM sodium orthovanadate, 1 mM dithiothreitol, 0.01% Triton X-100. 2. Magnesium/ATP Cocktail: ADB solution (minus Triton X-100) plus 200 μM cold ATP and 40 mM magnesium chloride. 3. Active Kinase: Active B-Raf: used at 0.2 nM per assay point. 4. Non-active GST-MEK1: Use at 2.8 nM final concentration). 5. TBST-Tris (50 mM, pH 7.5), NaCl (150 mM), Tween-20 (0.05%)
7. Anti pMEK Ab (Upstate) 8. Anti-rabbit Ab/Europium conjugate (Wallac)
1. Add 25 μl of ADB containing B-Raf and Mek per assay (i.e. per well of a 96 well plate) 2. Add 25 μl of 0.2 mM ATP and 40 mM magnesium chloride in Magnesuium/ATP Cocktail. 3. Incubate for 45 minutes at RT with occasional shaking. 4. Transfer this mixture to an anti-GST Ab coated 96 well plate (Nunc Immunosorb plates coated o/n with a-GST. Plate freshly washed 3× with TBS-T before use. 5. Incubate o/n at […] in cold room. 6. Wash 3× with TBST, add Anti-Phospho MEK1 (1:1000, dilution depends upon lot) 7. Incubate for 60 minutes at RT in a shaking incubator 8. Wash 3× with TBST, add Anti-rabbit Ab/Europium conjugate (Wallac) (1:500, dilution depends upon lot) 9. Incubate for 60 minutes at RT on a platform shaker. 10. Wash plate 3× with TBS-T 11. Add 100 ul of Wallac Delfia Enhancement Solution and shake for 10 minutes. 12. Read plates in Wallac Victor model Plate Reader. 13. Collect data analyze in Excel for single point and IC50 determinations. Mallon R, et al (2001) Anal. Biochem. 294:48.
IC50 determinations were performed on compounds of Formula A from single point assays with >80% inhibition. Single point assay—% inhibition at 10 mg/mL (% inhibition=1—sample treated with compound of Formula A/untreated control sample). The % inhibition was determined for each compound concentration. IC50 determinations—Typically the B-Raf assay was run at compound concentrations from 1 μM to 3 nM or 0.1 uM to 300 pm in half log dilutions. Data was analyzed in Excel and transferred to Radis.

T1 sequence (P15056 whole entry): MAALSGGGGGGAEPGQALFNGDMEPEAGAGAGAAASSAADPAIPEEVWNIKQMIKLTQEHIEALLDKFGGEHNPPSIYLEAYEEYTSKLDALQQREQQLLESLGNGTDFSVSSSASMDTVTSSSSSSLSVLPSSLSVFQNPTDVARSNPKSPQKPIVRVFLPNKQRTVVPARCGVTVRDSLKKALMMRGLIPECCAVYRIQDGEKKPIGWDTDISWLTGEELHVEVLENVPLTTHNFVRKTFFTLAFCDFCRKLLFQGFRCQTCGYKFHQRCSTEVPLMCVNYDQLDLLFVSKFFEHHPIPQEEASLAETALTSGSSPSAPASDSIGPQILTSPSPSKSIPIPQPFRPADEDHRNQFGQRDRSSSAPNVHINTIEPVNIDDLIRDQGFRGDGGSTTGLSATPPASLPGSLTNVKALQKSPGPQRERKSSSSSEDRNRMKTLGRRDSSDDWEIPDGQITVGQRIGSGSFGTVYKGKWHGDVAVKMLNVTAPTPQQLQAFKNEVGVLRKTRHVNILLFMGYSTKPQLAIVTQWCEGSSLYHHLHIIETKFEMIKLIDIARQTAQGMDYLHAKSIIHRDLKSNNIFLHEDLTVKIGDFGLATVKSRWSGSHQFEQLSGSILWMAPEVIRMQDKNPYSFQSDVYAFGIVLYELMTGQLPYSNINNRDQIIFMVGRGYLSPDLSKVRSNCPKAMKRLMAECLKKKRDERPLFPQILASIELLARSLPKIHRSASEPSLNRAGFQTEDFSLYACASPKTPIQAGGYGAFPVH

SMILES	IC50
Oc1cccc(-c2c(-c3ccncc3)nn3c(C4CCCCC4)cnnc23)c1 [Example 2, 3-(4-cyclohexyl-7-pyridin-4-yl-pyrazolo[5,1-c][1,2,4]triazin-8-yl)phenol]	18 nM
COc1cccc(-c2c(-c3ccncc3)nn3c(C)c(C(=O)N4CCN(C)CC4)nnc23)c1 [Example 3]	1000 nM
Oc1cccc(-c2c(-c3ccncc3)nn3c(-c4ccc(Br)nc4)cnnc23)c1 [Example 5, 3-[4-(6-Bromo-pyridin-3-yl)-7-pyridin-4-yl-pyrazolo[5,1-c][1,2,4]triazin-8-yl]-phenol]	91 nM
CN1CCCN(c2ccc(-c3cnnc4c(-c5cccc(O)c5)c(-c5ccncc5)nn34)cn2)CC1 [Example 6, 3-{4-[6-(4-Methyl-[1,4]diazepan-1-yl)-pyridin-3-yl]-7-pyridin-4-yl-pyrazolo[5,1-c][1,2,4]triazin-8yl}-phenol]	2 nM
CN1CCN(c2ccc(-c3cnnc4c(-c5cccc(O)c5)c(-c5ccncc5)nn34)cn2)CC1 [Example 7, 3-{4-[6-(4-Methyl-piperazin-1-yl)-pyridin-3-yl]-7-pyridin-4-yl-pyrazolo[5,1-c][1,2,4]triazin-8-yl}-phenol]	2 nM
Cc1c(S(=O)(=O)c2ccccc2)nnc2c(-c3cccc(O)c3)c(-c3ccncc3)nn12 [Example 9, 3-[4-Methyl-3-(phenylsulfonyl)-7-pyridin-4-ylpyrazolo[5,1-c][1,2,4]triazin-8-yl]phenol]	55 nM
CCOC(=O)c1nnc2c(-c3ccc(Cl)c(OC)c3)c(-c3ccncc3)nn2c1C1CC1 [Example 10, Ethyl 8-(4-chloro-3-methoxyphenyl)-4-cyclopropyl-7-pyridin-4-yl pyrazolo[5,1-c][1,2,4]triazine-3-carboxylate]	329 nM
CN1CCCN(c2ccc(-c3cnnc4c(-c5ccc(Cl)c(O)c5)c(-c5ccncc5)nn34)cn2)CC1 [Example 14, 2-Chloro-5-{4-[6-(4-methyl-1,4-diazepan-1-yl)pyridin-3-yl]-7-pyridin-4-ylpyrazolo[5,1-c][1,2,4]triazin-8-yl}phenol]	< 0.3 nM
CN1CCN(S(=O)(=O)c2cccc(-c3cnnc4c(-c5ccc(Cl)c(O)c5)c(-c5ccncc5)nn34)c2)CC1 [Example 15, 2-Chloro-5-(4-{3-[(4-methylpiperazin-1-yl)sulfonyl]phenyl}-7-pyridin-4-ylpyrazolo[5,1-c][1,2,4]triazin-8-yl)phenol]	< 0.3 nM
CCOC(=O)N1C2CCC1CC(c1cnnc3c(-c4ccc(Cl)c(O)c4)c(-c4ccncc4)nn13)C2 (stereo not shown) [Example 18, Ethyl 3-[8-(4-chloro-3-hydroxyphenyl)-7-pyridin-4-ylpyrazolo[5,1-c][1,2,4]triazin-4-yl]-8-azabicyclo[3.2.1]octane-8-carboxylate]	0.3 nM
